This is an account of results in patent US20260364186A1, “Chemical Conjugates, Compositions, and Methods of Preparation and Use Thereof” (Transfection Holdings Limited, priority 2022, published 2026).

Entries after “also recorded” stand apart in the source; their conditions may differ.

For series [1], the system named is HEM (human epidermal melanocytes). The series can be described thus: FACS uptake of BODIPY FL conjugates, 50 nM, 5 min (Example 1). It counts as cell-based. The conditions noted are these: HEM / normal melanocytes. The procedure:
FIG. 1. Conjugate compounds coupled to BODIPY FL were tested for uptake using 50 nM each conjugate and 5 minute incubation with HEM (human epidermal melanocytes) and melanoma cell line NZM11 (BRAF V600E mutant metastatic melanoma). Mean fluorescent intensities (MFI). For these tests, n=300-500, mean±SD. Results were from a single experiment done in triplicate. Cells were sorted by FACS.
Materials and methods: NZM11 is an adherent metastatic melanoma cell derived from a patient with a subcutaneous lesion on their mid back. This human metastatic melanoma is identified with code CBA-1398 from Cell bank Australia. […] Cells of NZM11 diluted in MEMα media and cells of HEMnDP (primary melanocyte cell line) diluted in media 254 were left to settle in 96-wells microplate for 48 hours. 10 μL of 10 mM stock solutions in DMSO from 138 and pantothenic acid/pantothenic acid derivatives coupled to BODIPY were diluted with HBSS to afford 100 nM solution. Then, 100 nM compounds and DMSO solutions were diluted 1:1 with MEMα media for NZM11 and media 254 for HEMnDP to afford 50 nM solutions. After the 48 hour settle time, media was removed from the cells and 200 μL of 50 nM media solutions were poured to each well and incubated for 5 minutes at 37 °C. […] The FACS results output represented the mean of the fluorescence intensities (in arbitrary units) measured for cells sorted in every sample

The test system of series [2] is HT29 (colorectal cancer cell line). The series can be described thus: FACS uptake of BODIPY FL conjugates (Example 4). It counts as cell-based, human. The conditions noted are these: 200 nM, 5 min. The procedure: FIG. 4A: Conjugate compounds coupled to BODIPY FL were tested for uptake using 200 nM each conjugate and 5 minute incubation with colorectal cancer cell line HT29. Mean fluorescent intensities (MFI). 1,000 cells were sorted by FACS.
Materials and methods: The HT-29 line was originally isolated from a primary tumour in 1964 from a person. This cell line is positive for expression of N-ras and overexpression of p53 antigen. The human colon adenocarcinoma cell line HT29, is not only used to study the biology of human colon cancers, but it is receiving special interest in studies focused on food digestion and bioavailability due to the ability to express characteristics of mature intestinal cells. The application of this cell line to transport studies of drugs and food compounds is illustrated, especially when the effect of the mucus layer is considered or used as co-culture in combination with Caco-2 cells. These cells have shown a high rate of glucose consumption and therefore, they require high glucose concentration in the medium. Verhoeck et al., 2015.
For these experiments, HT-29 or MEF cells were diluted on αMEM media (supplemented with 10% FBS+1% penicillin-streptomycin) to give a 250 cells/μL suspension of which 200 μL were aliquoted into each well of a 96 well plate followed by incubation for 24 hours. Next, 2 μL of 100 μM stock solutions in DMSO from the conjugates coupled to BODIPY were diluted with 998 μL of αMEM media to give a 200 nM solution. After 24 hour incubation, media was removed and 200 μL of 138 and pantothenic acid/pantothenic acid derivatives coupled to BODIPY 200 nM solutions were added and cells were incubated for 5 minutes at 37 °C. After 5 minutes, the compounds and DMSO solutions were removed and cells were washed with PBS. Then, 100 μL of TrypLE trypsin were added to each well and incubated for 5 minutes at 37 °C. After this time, 100 μL of DMEM media were added to the wells and samples were sorted through FACS biosort. The studies were completed in duplicated wells.

Series [3] relates to NZM9 (BRAF and NRAS wildtype) melanoma cells. The series is described as follows: FACS uptake of BODIPY FL conjugates, 200 nM, 5 min (Example 2). It counts as cell-based, human. The procedure:
(§1) FIG. 2. Conjugate compounds coupled to BODIPY FL were tested for uptake using 200 nM each conjugate and 5 minute incubation with melanoma cell line NZM11 (BRAF V600E mutant metastatic melanoma), melanoma cell line NZM40 (NRAS Q16H mutant metastatic melanoma) and melanoma cell line NZM9 (BRAF and NRAS wildtype metastatic melanoma). Mean fluorescent intensities (MFI). 2,000 cells (NZM11), 1,000 cells (NZM40) and 500-1,000 cells (NZM9). Cells were sorted by FACS. Bars represent mean±SD. Results were from a single experiment done in triplicate.
NZM9 is an adherent cell line which was originally derived from a metastatic melanoma from a patient (from axillary lymph node, source: Cellosaurus database). These cancer cells are BRAF and NRAS wild type. NZM9 present a mutation on gene TP53, which is the most frequent in human cancers, on 179C/T. This gene encodes the synthesis of protein p53 which acts as a tumour suppressor. See Tran et al., 2021; Levine and Owen, 2009; Duffy and Crown, 2021.
(§2) For screening, NZM11, NZM40 and NZM9 cells were suspended at […] dispensed into 96 well plates and left to settle for 48 hours. Then, 10 μL of 10 mM stock solutions in DMSO for the conjugates were diluted with HBSS to afford 400 nM solution. Next, 400 nM compounds and DMSO solutions were diluted 1:1 with MEMα media to afford 200 nM solutions. After 48 hours the media was removed from the 96 well plates and 200 μL of 200 nM conjugates solutions dispensed to each well (in triplicate) and incubated for 5 minutes at 37 °C. After 5 minutes, the media was removed and cells washed with PBS. Then, 100 μL of TrypLE trypsin (ThermoFisher Scientific) were added to each well and incubated for 5 minutes at 37 °C after which, 100 μL of MEMα media were added and samples were sorted through FACS biosort. The FACS results output were represented as the mean of the fluorescence intensities (in arbitrary units) measured for cells sorted in every sample.

For series [4], the system named is NZM11 (BRAF V600E) melanoma cells. Described as above. It counts as cell-based, human. The procedure:
as §1
Materials and methods: NZM11 is an adherent metastatic melanoma cell which was originally derived from a patient with a subcutaneous lesion on their mid back. This human metastatic melanoma is identified with code CBA-1398 from Cell Bank Australia. […] BRAF is a gene that makes a protein called B-Raf. The gene is involved in sending signals within cells that direct the cell's growth. Around 50% of melanomas bear activating BRAF mutations. In this family of mutations, V600E is the most common, which is a single mutation on codon 600. BRAF mutation is also most common in patients whose tumours arise on skin without chronic sun-induced damage. See Ascierto et al., 2012.
as §2, with “Then, 100 μL of TrypLE trypsin (ThermoFisher Scientific) were added to each well and incubated for 5 minutes at 37 °C after which, 100 μL of MEMα media were added and samples were sorted through FACS biosort.” left out

Take `CC1=CC(C)=[N+]2C1=Cc1ccc(CCCn3cc(CCNC(=O)/C=C\NC(=O)[C@H]4OC(C)(C)OCC4(C)C)nn3)n1[B-]2(F)F` [Compound 131, (Z)—N-((((3-[4,4-Difluoro-5,7-dimethyl-4-bora-3a,4a-diaza-s-indacene-3-yl]propyl)-1H-1,2,3-triazol-4-yl)ethylamino)-3-oxoprop-1-enyl)-2,2,5,5-tetramethyl-1,3-dioxane-4-carboxamide]: in series [1], the “uptake (fluorescence intensities)” value is listed as “significant uptake”. Besides, the “uptake (fluorescent intensities)” value in series [2] is given as “higher uptakes than their diol counterparts”.
For the molecule `CC1=CC(C)=[N+]2C1=Cc1ccc(CCCn3cc(CCNC(=O)/C=C/NC(=O)[C@@H]4OC(C)(C)OCC4(C)C)nn3)n1[B-]2(F)F` [Compound 125, (R,E)-N-((((3-[4,4-difluoro-5,7-dimethyl-4-bora-3a,4a-diaza-s-indacene-3-yl]propyl)-1H-1,2,3-triazol-4-yl)eth-ylamino)-3-oxoprop-1-enyl)-2,2,5,5-tetramethyl-1,3-dioxane-4-carboxamide], the “uptake (fluorescence intensities)” value in series [3] and in series [4] was “selective uptake; also recorded: significant uptake” each time. In addition, in series [2], the “uptake (fluorescent intensities)” value is recorded as “moderately higher fluorescent intensities”.
With `CC1=CC(C)=[N+]2C1=Cc1ccc(CCCn3cc(CCNC(=O)/C=C/NC(=O)[C@H](O)C(C)(C)CO)nn3)n1[B-]2(F)F` [Compound 124], the “uptake (fluorescence intensities)” value in series [1] was “no significant uptake”; in series [3], “highest intensities; also recorded: best targeting activity”; in series [4], “highest intensities; also recorded: best targeting activity”. The “higher fluorescence intensities compared to enantiomer 126” value amounted to 7 times in series [3] and 15 fold in series [4].
